The test deals with GCN2 (Homo sapiens, UniProt Q9P2K8). Description: GCN2 enzymatic endpoint assay: phosphorylation of GFP-eIF2α measured by TR-FRET (Lanthascreen). It counts as biochemical. In outline:
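Reaction started with 2 μM ATP and 80 nM GFP-labelled eIF2α substrate at room temperature, stopped with EDTA after 90 minutes. Phospho-eIF2α detected by terbium-labelled antibody TR-FRET; activity taken as 520 nm (fluorescein) to 495 nm (terbium) emission ratio.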

Setting [1] is: tested as described in Example 77, compound and/or hydrochloride, dihydrochloride or trifluoroacetic acid salt, read-out: IC 50 Activity.
[2] abbreviates: GCN2 biochemical IC50, 4 nM GCN2, 2 μM ATP, 80 nM GFP-eIF2α, 90 min RT, read-out: GCN2 activity.

Data on 28 molecules can be found in patent US11046699B2, “Pyrazolo-pyrimidin-amino-cycloalkyl compounds and their therapeutic uses” (RAPT THERAPEUTICS, INC., priority 2018, dated 2021).

The structures appear in SMILES notation. Read-outs that look alike come from different tables or passages of the source. Some results are limits rather than exact numbers.

Chain of GCN2 (Q9P2K8 whole entry): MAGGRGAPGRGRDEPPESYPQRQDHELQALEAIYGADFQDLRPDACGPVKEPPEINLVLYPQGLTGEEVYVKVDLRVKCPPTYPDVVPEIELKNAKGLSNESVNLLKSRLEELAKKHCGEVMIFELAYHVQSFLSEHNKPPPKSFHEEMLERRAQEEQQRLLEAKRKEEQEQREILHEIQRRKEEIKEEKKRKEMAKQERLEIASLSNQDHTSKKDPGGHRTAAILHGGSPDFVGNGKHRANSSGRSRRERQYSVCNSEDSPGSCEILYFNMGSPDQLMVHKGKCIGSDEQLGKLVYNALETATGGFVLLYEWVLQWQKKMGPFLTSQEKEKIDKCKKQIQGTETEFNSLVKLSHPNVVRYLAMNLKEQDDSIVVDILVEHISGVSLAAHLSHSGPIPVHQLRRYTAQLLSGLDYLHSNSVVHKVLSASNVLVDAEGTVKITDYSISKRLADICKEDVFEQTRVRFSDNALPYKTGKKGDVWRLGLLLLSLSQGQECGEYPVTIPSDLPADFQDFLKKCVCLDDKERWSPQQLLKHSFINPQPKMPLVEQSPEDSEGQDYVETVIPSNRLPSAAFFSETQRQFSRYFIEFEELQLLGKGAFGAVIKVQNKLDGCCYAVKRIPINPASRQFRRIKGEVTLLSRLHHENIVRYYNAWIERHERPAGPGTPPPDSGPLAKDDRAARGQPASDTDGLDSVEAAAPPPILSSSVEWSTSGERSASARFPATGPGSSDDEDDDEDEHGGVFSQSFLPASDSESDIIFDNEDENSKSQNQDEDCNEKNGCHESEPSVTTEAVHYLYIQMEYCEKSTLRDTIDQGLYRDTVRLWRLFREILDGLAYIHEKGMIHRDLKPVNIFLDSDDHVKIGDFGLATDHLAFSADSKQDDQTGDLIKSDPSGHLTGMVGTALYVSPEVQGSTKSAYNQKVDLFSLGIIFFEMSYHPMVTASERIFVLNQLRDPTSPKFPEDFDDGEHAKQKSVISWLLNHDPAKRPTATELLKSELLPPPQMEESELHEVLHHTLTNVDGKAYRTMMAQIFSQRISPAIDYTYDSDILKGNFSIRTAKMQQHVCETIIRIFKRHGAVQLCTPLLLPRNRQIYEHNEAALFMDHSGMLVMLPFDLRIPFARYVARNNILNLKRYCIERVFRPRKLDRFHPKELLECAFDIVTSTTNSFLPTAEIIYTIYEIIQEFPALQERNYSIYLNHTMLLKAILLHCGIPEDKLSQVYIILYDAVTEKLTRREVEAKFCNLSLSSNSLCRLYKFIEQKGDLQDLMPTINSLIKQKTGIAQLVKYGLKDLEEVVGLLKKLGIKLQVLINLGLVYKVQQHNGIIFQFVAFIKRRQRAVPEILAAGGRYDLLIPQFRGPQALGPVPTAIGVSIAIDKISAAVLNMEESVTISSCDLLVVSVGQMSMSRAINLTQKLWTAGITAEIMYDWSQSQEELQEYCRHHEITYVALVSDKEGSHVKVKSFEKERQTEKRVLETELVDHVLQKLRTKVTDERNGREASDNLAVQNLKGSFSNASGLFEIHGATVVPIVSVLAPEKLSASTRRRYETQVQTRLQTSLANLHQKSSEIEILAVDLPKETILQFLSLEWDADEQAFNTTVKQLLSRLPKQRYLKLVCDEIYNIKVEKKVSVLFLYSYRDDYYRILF

For the molecule `CC1(C(=O)N2CCOCC2)CC[C@@H](Nc2ncc3c(Br)nn(-c4cc(F)c5ncccc5c4)c3n2)C1` (stereo partly drawn) [[(3R)-3-[[3-bromo-1-(8-fluoro-6-quinolyl)pyrazolo[3,4-d]pyrimidin-6-yl]amino]-1-methyl-cyclopentyl]-morpholino-methanone], under setting [1], the IC50 is under 25 nM.

Take `CNC(=O)[C@]1(C)CC[C@@H](Nc2ncc3c(Br)nn(-c4ccc(-c5ncco5)c(CNCC(F)F)c4)c3n2)C1` [(1R,3R)-3-[[3-bromo-1-[3-[(2,2-difluoroethylamino)methyl]-4-oxazol-2-yl-phenyl]pyrazolo[3,4-d]pyrimidin-6-yl]amino]-N,1-dimethyl-cyclopentane-carboxamide]: the IC50 under setting [1] was 25 to 200 nM.

On to `COCCNC(=O)[C@@H]1CC[C@@H](Nc2ncc3c(Br)nn(-c4cc(C(F)(F)F)c5ncccc5c4)c3n2)C1` [(1R,3R)-3-((3-bromo-1-(8-(trifluoromethyl)quinolin-6-yl)-1H-pyrazolo[3,4-d]pyrimidin-6-yl)amino)-N-(2-methoxyethyl)cyclopentane-1-carboxamide], for which the IC50 under setting [1] lay in the range of 200 to 500 nM.

As to `CNC(=O)[C@]1(C)CC[C@@H](Nc2ncc3c(Br)nn(-c4cc(OCCO)c5c(c4)OCC(=O)N5C)c3n2)C1` [(1R,3R)-3-[[3-bromo-1-[5-(2-hydroxyethoxy)-4-methyl-3-oxo-1,4-benzoxazin-7-yl]pyrazolo [3,4-d]pyrimidin-6-yl]amino]-N,1-dimethyl-cyclopentanecarboxamide], under setting [1], the IC50 is under 25 nM.

On to `CNC(=O)[C@]1(C)CC[C@@H](Nc2ncc3c(Br)nn(-c4ccc(-c5nnc(C)s5)cc4)c3n2)C1` [Example 38, (1R,3R)-3-((3-bromo-1-(4-(5-methyl-1,3,4-thiadiazol-2-yl)phenyl)-1H-pyrazolo[3,4-d]pyrimidin-6-yl)amino)-N,1-dimethylcyclopentane-1-carboxamide], for which the IC50 under setting [2] is under 25 nM.

Take `CNC(=O)c1cc(Cl)cc(-n2nc(Br)c3cnc(N[C@@H]4CC[C@@](C)(C(=O)NC)C4)nc32)c1` [3-[3-bromo-6-[[(1R,3R)-3-methyl-3-(methylcarbamoyl)cyclopentyl]amino]pyrazolo[3,4-d]pyrimidin-1-yl]-5-chloro-N-methyl-benzamide]: the IC50 under setting [1] is 25 to 200 nM.

With `Cc1nnc(-c2ccc(-n3nc(Br)c4cnc(N[C@@H]5CC[C@@](C)(CO)C5)nc43)cc2CCC#N)s1` [3-[5-[3-bromo-6-[[(1R,3R)-3-(hydroxy-methyl)-3-methyl-cyclopentyl]amino]pyrazolo[3,4-d]pyrimidin-1-yl]-2-(5-methyl-1,3,4-thiadiazol-2-yl)phenyl] propanenitrile], the IC50 under setting [1] is 25 to 200 nM.

With `CNC(=O)[C@]1(C)CC[C@@H](Nc2ncc3c(Br)nn(-c4cc(Cl)cc(CO)c4)c3n2)C1` [Example 46, (1R,3R)-3-((3-bromo-1-(3-chloro-5-(hydroxymethyl)phenyl)-1H-pyrazolo[3,4-d]pyrimidin-6-yl)amino)-N,1-dimethylcyclopentane-1-carboxamide; 2,2,2-trifluoroacetic acid], the IC50 under setting [2] fell in the range of 25 to 200 nM.

As to `CNC(=O)C1(C)CC[C@@H](Nc2ncc3c(Br)nn(-c4ccc(-c5cccnc5)c(C#N)c4)c3n2)C1` (stereo partly drawn) [Example 44, (3R)-3-((3-bromo-1-(3-cyano-4-(pyridin-3-yl)phenyl)-1H-pyrazolo[3,4-d]pyrimidin-6-yl)amino)-N,1-dimethylcyclopentane-1-carboxamide; 2,2,2-trifluoroacetic acid], the IC50 under setting [2] lay in the range of 25 to 200 nM.

As to `CNC(=O)[C@]1(C)CC[C@@H](Nc2ncc3c(Br)nn(-c4ccc5c(c4)CCC(=O)N5CC(F)F)c3n2)C1` [(1R,3R)-3-[[3-bromo-1-[1-(2,2-difluoro-ethyl)-2-oxo-3,4-dihydroquinolin-6-yl]pyrazolo[3,4-d]pyrimidin-6-yl]amino]-N,1-dimethyl-cyclopentanecarboxamide], the IC50 under setting [1] was 25 to 200 nM.

Turning to `CNC(=O)[C@]1(C)CC[C@@H](Nc2ncc3c(Br)nn(-c4ccc(-c5cccnc5)c(CN)c4)c3n2)C1` [(1R,3R)-3-[[1-[3-(aminomethyl)-4-(3-pyridyl)phenyl]-3-bromo-pyrazolo[3,4-d]pyrimidin-6-yl]amino]-N,1-dimethyl-cyclopentane-carboxamide], under setting [1], the IC50 was in the range of 25 to 200 nM.

With `COCCNC(=O)[C@]1(C)CC[C@@H](Nc2ncc3c(Br)nn(-c4ccc5ncccc5c4)c3n2)C1` [(1R,3R)-3-((3-bromo-1-(quinolin-6-yl)-1H-pyrazolo[3,4-d]pyrimidin-6-yl)amino)-N-(2-methoxyethyl)-1-methylcyclopentane-1-carboxamide], under setting [1], the IC50 lay in the range of 25 to 200 nM.

As for `CNC(=O)[C@]1(C)CC[C@@H](Nc2ncc3c(Br)nn(-c4ccc(-c5nncs5)cc4)c3n2)C1`, the IC50 under setting [1] was 25 to 200 nM.

As to `O=C1CN(C(=O)[C@@H]2CC[C@@H](Nc3ncc4c(Br)nn(-c5cc(F)c6ncccc6c5)c4n3)C2)CCN1` [4-((1R,3R)-3-((3-bromo-1-(8-fluoroquinolin-6-yl)-1H-pyrazolo[3,4-d]pyrimidin-6-yl)amino)cyclopentane-1-carbonyl)piperazin-2-one], the IC50 under setting [1] lay in the range of 25 to 200 nM.

Turning to `CNC(=O)[C@]1(C)CC[C@@H](Nc2ncc3c(Br)nn(-c4ccc(-c5ncco5)c(NC(=O)CC#N)c4)c3n2)C1` [(1R,3R)-3-[[3-bromo-1-[3-[(2-cyanoacetyl)amino]-4-oxazol-2-yl-phenyl]pyrazolo [3,4-d]pyrimidin-6-yl]amino]-N,1-dimethyl-cyclopentanecarboxamide], under setting [1], the IC50 was 25 to 200 nM.

As to `CNC(=O)[C@]1(C)CC[C@@H](Nc2ncc3c(Br)nn(-c4ccc5nc(N6CCNCC6)ncc5c4)c3n2)C1`, the IC50 under setting [1] is under 25 nM.

Take `CNC(=O)[C@]1(CC(F)F)CC[C@@H](Nc2ncc3c(Br)nn(-c4ccc(-c5nnc(C)s5)cc4)c3n2)C1` [Example 39, (1R,3R)-3-((3-bromo-1-(4-(5-methyl-1,3,4-thiadiazol-2-yl)phenyl)-1H-pyrazolo[3,4-d]pyrimidin-6-yl)amino)-1-(2,2-difluoroethyl)-N-methylcyclopentane-1-carboxamide; 2,2,2-trifluoroacetic acid]: the IC50 under setting [2] was under 25 nM.

Consider `CNC(=O)[C@]1(CCC(F)(F)F)CC[C@@H](Nc2ncc3c(Br)nn(-c4cc(F)c5ncccc5c4)c3n2)C1` [(1S,3R)-3-[[3-bromo-1-(8-fluoro-6-quinolyl)pyrazolo[3,4-d]pyrimidin-6-yl]amino]-N-methyl-1-(3,3,3-trifluoropropyl)cyclopentane-carboxamide], for which the IC50 under setting [1] lay in the range of 25 to 200 nM.

For the molecule `CNC(=O)[C@]1(C)CC[C@@H](Nc2ncc3c(Br)nn(-c4cc(CC5(N)CC5)c5ncccc5c4)c3n2)C1` [(1R,3R)-3-[[1-[8-[(1-aminocyclopropyl)methyl]-6-quinolyl]-3-bromo-pyrazolo [3,4-d]pyrimidin-6-yl]amino]-N,1-dimethyl-cyclopentanecarboxamide], under setting [1], the IC50 was in the range of 25 to 200 nM.

For the molecule `COCCN(C)C(=O)[C@]1(C)CC[C@@H](Nc2ncc3c(Br)nn(-c4cc(F)c5ncccc5c4)c3n2)C1` [(1R,3R)-3-[[3-bromo-1-(8-fluoro-6-quinolyl)pyrazolo[3,4-d]pyrimidin-6-yl]amino]-N-(2-methoxyethyl)-N,1-dimethyl-cyclopentane-carboxamide], under setting [1], the IC50 was under 25 nM.

As for `C[C@H]1COCCN1C(=O)[C@@H]1CC[C@@H](Nc2ncc3c(Br)nn(-c4ccc5ncccc5c4)c3n2)C1` [((1R,3R)-3-((3-bromo-1-(quinolin-6-yl)-1H-pyrazolo[3,4-d]pyrimidin-6-yl)amino)cyclopentyl)((S)-3-methylmorpholino) methanone], under setting [1], the IC50 lay within 25 to 200 nM.

On to `CNC(=O)[C@@H]1CC[C@@H](Nc2ncc3c(Br)nn(-c4cc(F)c5ncccc5c4)c3n2)C1` [Example 8, (1R,3R)-3-((3-bromo-1-(8-fluoroquinolin-6-yl)-1H-pyrazolo[3,4-d]pyrimidin-6-yl)amino)-N-methylcyclopentane-1-carboxamide], for which, under setting [2], the IC50 lay within 25 to 200 nM.

`CNC(=O)[C@]1(C)CC[C@@H](Nc2ncc3c(Br)nn(-c4ccc(-c5ccon5)cc4)c3n2)C1` [(1R,3R)-3-[[3-bromo-1-(4-isoxazol-3-ylphenyl)pyrazolo[3,4-d]pyrimidin-6-yl]amino]-N,1-dimethyl-cyclopentane-carboxamide]: the IC50 under setting [1] was 25 to 200 nM.

With `O=C([C@@H]1CC[C@@H](Nc2ncc3c(Br)nn(-c4cc(F)c5ncccc5c4)c3n2)C1)N1CCN2C(=O)CC[C@@H]2C1` [(8aR)-2-[(1R,3R)-3-[[3-bromo-1-(8-fluoro-6-quinolyl)pyrazolo[3,4-d]pyrimidin-6-yl]amino]cyclopentane-carbonyl]-1,3,4,7,8,8a-hexahydro-pyrrolo[1,2-a]pyrazin-6-one], the IC50 under setting [1] is under 25 nM.

Consider `CNC(=O)[C@]1(CCOC)CC[C@@H](Nc2ncc3c(Br)nn(-c4ccc(-c5nnc(C)s5)c(CCC#N)c4)c3n2)C1` [(1R,3R)-3-[[3-bromo-1-[3-(2-cyano-ethyl)-4-(5-methyl-1,3,4-thiadiazol-2-yl)phenyl]pyrazolo[3,4-d]pyrimidin-6-yl]amino]-1-(2-methoxyethyl)-N-methyl-cyclopentanecarboxamide; 2,2,2-trifluoroacetic acid], for which the IC50 under setting [1] is 25 to 200 nM.

In the case of `CN1C(=O)CCC1CNC(=O)[C@@H]1CC[C@@H](Nc2ncc3c(Br)nn(-c4cc(C#N)c5ncccc5c4)c3n2)C1` (stereo partly shown), the IC50 under setting [1] was under 25 nM.

For `CNC(=O)[C@]1(C)CC[C@@H](Nc2ncc3c(Br)nn(-c4ccc5ncc(C(C)(C)O)cc5c4)c3n2)C1` [(1R,3R)-3-[[3-bromo-1-[3-(1-hydroxy-1-methyl-ethyl)-6-quinolyl]pyrazolo[3,4-d]pyrimidin-6-yl]amino]-N,1-dimethyl-cyclopentanecarboxamide], the IC50 under setting [1] fell in the range of 25 to 200 nM.

On to `Cc1nnc(-c2ccc(-n3nc(Br)c4cnc(N[C@@H]5CC[C@@H](NC(=O)C(C)C)C5)nc43)cc2)s1` [N-[(1R,3R)-3-[[3-bromo-1-[4-(5-methyl-1,3,4-thiadiazol-2-yl)phenyl]pyrazolo [3,4-d]pyrimidin-6-yl]amino]cyclopentyl]-2-methyl-propanamide], for which the IC50 under setting [1] was in the range of 25 to 200 nM.
